The results in this text go back to patent publication US20040002460A1, “Spheron components useful in determining compounds capable of treating symptoms of Alzheimer's disease, and treatments and animal models produced therefrom” (priority 2002, published 2004).

A short description of the series: in vitro.

Procedure: The spheron component peptides in phosphate buffered saline (PBS) were incubated alone and in combination into glioma cell cultures and neuroblastoma cell cultures. Controls of
Cryopreserved glioma and neuroblastoma cells were acquired from the American Type Culture Collection (ATCC), Virginia. Cells were thawed and diluted in suspension media and centrifuged at 700 rpm for 7 minutes at 4 C. Cell pellets then were resuspended in CACO-2 media and cultured in standard 75 or 175 cm^2 flasks at 37 C, 5% CO(2) until approximately confluent. The cells were then trypsinized and resuspended in CACO-2 media to achieve a final cell density of 1.5×10^5 cells/mL. 50 μL aliquots per sample were then added per well to 96 well plates.
For Experiment I, 50 μL of either PBS (phosphate buffered solution) (negative control), 100 μM tamoxifen in phosphate buffered saline PBS (positive control), or test article were added to each sample culture.
An MTT assay is a sensitive assay for the measurement of cell proliferation based upon the reduction of the tetrazolium salt 3,[4,5-dimetylthiazol-2-yl]-2,5-diphenyltetrazolium bromide (MTT). […] Plates were then agitated gently for 1 minute on a rotary shaker and the difference between emission absorbance of 570 nm and background absorbance of 650 nm was measured spectrophotometrically on an automated plate reader. […]

The viability is a read-out of living cells in per cent, often relative to untreated cells. Lower therefore signals more harm to the cells. For the molecule `CC/C(=C(\c1ccccc1)c1ccc(OCCN(C)C)cc1)c1ccccc1` [Tamoxifen, tamoxifen], the viability at 4 days, 100 µM came to 63%.
